# Experimental data published in ChEMBL document CHEMBL5729184, “Purine derivatives and the use thereof as medicament” (2022).
# Target: Glutamate receptor ionotropic, NMDA 2B (Homo sapiens, UniProt Q13224)
# Experiment: FLIPR Assay: At the assay day cells were washed 3× with assay buffer, 10 μL buffer remained in the wells after washing. 10 μL Ca kit loading buffer (AAT Bioquest) was added to the cells and the plates were incubated with lid for 60 minutes at r.t. 20 μl assay buffer containing 60 μM glycine (20 μM final) and 3 μM glutamate (1 μM final) was added to column 1-23. Fluorescence (indicating the calcium influx as a result of the NR1/NR2B ion channel activation) was read on the FLIPRtetra device for 60 seconds to monitor the glutamate induced effects. After 2 minutes 20 μL of compound or controls (row 1-22) in assay buffer were carefully added to the wells. […] Each assay microtiter plate contained wells (in column 23 or 24) with DMSO controls instead of compound as controls for glycine/glutamate induced fluorescence (high controls) and wells with 1 μM of a reference NR2b NAM as low controls (Compound 22; reference: Layton, Mark E et al, ACS Chemical Neuroscience 2011, 2(7), 352-362).
# Sequence of Glutamate receptor ionotropic, NMDA 2B (Q13224 whole entry): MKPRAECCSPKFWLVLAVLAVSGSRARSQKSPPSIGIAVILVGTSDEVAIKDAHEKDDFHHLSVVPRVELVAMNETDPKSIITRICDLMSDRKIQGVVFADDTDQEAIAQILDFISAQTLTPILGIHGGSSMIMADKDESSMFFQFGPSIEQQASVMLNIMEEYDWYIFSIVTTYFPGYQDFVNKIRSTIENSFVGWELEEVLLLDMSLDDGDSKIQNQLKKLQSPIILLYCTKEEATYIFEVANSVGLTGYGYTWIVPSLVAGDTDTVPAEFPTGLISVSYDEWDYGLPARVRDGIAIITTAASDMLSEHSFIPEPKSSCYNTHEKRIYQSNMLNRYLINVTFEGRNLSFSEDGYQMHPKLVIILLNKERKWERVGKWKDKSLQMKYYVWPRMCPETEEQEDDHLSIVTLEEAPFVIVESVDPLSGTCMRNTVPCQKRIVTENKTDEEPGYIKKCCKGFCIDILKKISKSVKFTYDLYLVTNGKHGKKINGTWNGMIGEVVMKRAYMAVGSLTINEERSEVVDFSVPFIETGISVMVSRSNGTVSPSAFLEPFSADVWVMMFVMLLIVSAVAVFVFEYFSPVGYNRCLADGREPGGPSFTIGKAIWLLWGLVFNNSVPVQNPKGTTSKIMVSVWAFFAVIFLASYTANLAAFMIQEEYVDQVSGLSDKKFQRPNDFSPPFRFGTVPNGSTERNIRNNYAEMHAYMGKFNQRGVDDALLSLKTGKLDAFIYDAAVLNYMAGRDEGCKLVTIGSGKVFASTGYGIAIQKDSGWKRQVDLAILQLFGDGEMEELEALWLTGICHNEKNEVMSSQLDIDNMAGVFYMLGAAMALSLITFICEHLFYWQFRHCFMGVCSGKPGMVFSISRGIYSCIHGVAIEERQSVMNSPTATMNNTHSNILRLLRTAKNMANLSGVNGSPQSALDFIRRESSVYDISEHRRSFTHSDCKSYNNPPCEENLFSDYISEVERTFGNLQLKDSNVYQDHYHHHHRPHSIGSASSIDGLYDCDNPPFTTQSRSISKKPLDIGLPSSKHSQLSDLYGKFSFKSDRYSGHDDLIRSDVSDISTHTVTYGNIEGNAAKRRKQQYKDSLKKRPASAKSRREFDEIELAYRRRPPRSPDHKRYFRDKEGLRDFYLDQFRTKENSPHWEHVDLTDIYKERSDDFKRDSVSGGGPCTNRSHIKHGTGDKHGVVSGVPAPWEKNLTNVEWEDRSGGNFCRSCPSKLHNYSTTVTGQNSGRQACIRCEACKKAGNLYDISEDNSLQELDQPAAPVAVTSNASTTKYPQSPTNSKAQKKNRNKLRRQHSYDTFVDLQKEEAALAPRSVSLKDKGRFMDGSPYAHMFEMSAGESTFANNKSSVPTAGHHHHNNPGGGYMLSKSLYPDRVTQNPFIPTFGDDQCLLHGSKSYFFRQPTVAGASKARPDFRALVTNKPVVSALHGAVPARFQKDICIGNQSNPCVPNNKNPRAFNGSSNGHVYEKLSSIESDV
row,SMILES,IC50 [µM]
1,Cc1cccc(COC(=O)N2CCOC(c3nc4cncnc4[nH]3)C2)c1 (stereo not given),0.322
2,O=C(OCc1ccccc1)N1CCOC(c2nc3cncnc3[nH]2)C1 (stereo not given),0.114
3,O=C(OCc1cccc(F)c1)N1CCOC(c2nc3cncnc3[nH]2)C1 (stereo not given),0.295
4,Cc1ncnc2[nH]c(C3CN(C(=O)OCc4ccccc4F)CCO3)nc12 (stereo not given),0.385
5,Cc1cc(F)ccc1COC(=O)N1CCOC(c2nc3cncnc3[nH]2)C1 (stereo not given),0.234
6,O=C(OCc1ccc(F)c(F)c1)N1CCOC(c2nc3cncnc3[nH]2)C1 (stereo not given),0.52
7,O=C(OCc1c(F)cccc1F)N1CCOC(c2nc3cncnc3[nH]2)C1 (stereo not given),0.111
8,Cc1cccc(F)c1COC(=O)N1CCOC(c2nc3cncnc3[nH]2)C1 (stereo not given),0.118
9,Cc1c(F)cccc1COC(=O)N1CCOC(c2nc3cncnc3[nH]2)C1 (stereo not given),0.52
10,O=C(OCc1ccc(F)cc1F)N1CCOC(c2nc3cncnc3[nH]2)C1 (stereo not given),0.102
11,O=C(OCc1ccc(Cl)cc1)N1CCOC(c2nc3cncnc3[nH]2)C1 (stereo not given),0.113
12,O=C(OCc1ccc(F)cc1)N1CCOC(c2nc3cncnc3[nH]2)C1 (stereo not given),0.107
13,Cc1ccc(COC(=O)N2CCOC(c3nc4c(C)ncnc4[nH]3)C2)cc1 (stereo not given),0.15
14,Cc1ncnc2[nH]c(C3CN(C(=O)OCc4ccc(F)cc4)CCO3)nc12 (stereo not given),0.637
15,O=C(OCc1ccc(Cl)c(F)c1)N1CCOC(c2nc3cncnc3[nH]2)C1 (stereo not given),0.314
16,Cc1ccc(COC(=O)N2CCO[C@H](c3nc4cncnc4[nH]3)C2)cc1F,0.1

# Compounds with a lower IC50, results first:
row,IC50 [µM],SMILES
1,0.09,O=C(OCc1ccc(F)cc1Cl)N1CCOC(c2nc3cncnc3[nH]2)C1 (stereo not given)
2,0.088,O=C(OCc1ccccc1Cl)N1CCOC(c2nc3cncnc3[nH]2)C1 (stereo not given)
3,0.084,O=C(OCc1c(F)cc(F)cc1F)N1CCOC(c2nc3cncnc3[nH]2)C1 (stereo not given)
4,0.083,Cc1cccc(COC(=O)N2CCOC(c3nc4cncnc4[nH]3)C2)c1F (stereo not given)
5,0.074,O=C(OCc1ccccc1F)N1CCOC(c2nc3cncnc3[nH]2)C1 (stereo not given)
6,0.067,Cc1ccc(COC(=O)N2CCOC(c3nc4cncnc4[nH]3)C2)cc1 (stereo not given)
7,0.06,O=C(OCc1cccc(F)c1F)N1CCOC(c2nc3cncnc3[nH]2)C1 (stereo not given)
8,0.049,Cc1ccc(COC(=O)N2CCOC(c3nc4cncnc4[nH]3)C2)c(F)c1 (stereo not given)
9,0.045,O=C(OCc1ccc(C(F)F)cc1)N1CCOC(c2nc3cncnc3[nH]2)C1 (stereo not given)
